Assay results: US20260097083A1, “METHOD FOR PRODUCING PANCREATIC ENDODERM CELLS” (Kyoto University, priority 2022, published 2026)

Key:
[1] = system: pancreatic endoderm cells derived from ES cells (KhES-3 line); assay: Expansion culture of pancreatic endoderm cells derived from ES cells; assay type: cell-based, human
Experimental: PDX1^+/NKX6.1^+ pancreatic endoderm cells were produced from iPS cells (585A1 line) or ES cells (KhES-3 line) on a 6-well plate using the method by Toyoda et al. (Toyoda T, et al. Stem Cell Reports 2017). Briefly, the undifferentiated cells above were seeded at 1×10^6/well on a 6-well plate coated with iMatrix-511 silk. The cells were cultured in RPMI to which an S1 culture medium (1×B-27 Supplement, 100 U/ml penicillin/streptomycin, 100 ng/ml activin A, and CHIR99021 (Day 1: 3 μM, Days 2 and 3: 1 μM, and Day 4: 0 μM)) had been added for 4 days, in an S2 culture medium (improved MEM to which 0.5×B-27 Supplement, 100 U/ml penicillin/streptomycin, and 50 ng/ml KGF/FGF7 had been added) for 5 days, and in an S3 culture medium (improved MEM to which 0.5×B-27 Supplement, 100 U/ml penicillin/streptomycin, 50 ng/ml KGF/FGF7, 0.2 μM LDN-193189, 0.1 μM SANT-1, and 10 nM TTNPB had been added) for 2 days. The cells were detached from the 6-well plate using trypsin, and were reseeded on a 6-well plate coated with iMatrix-511 silk at 1.5×10^6/well using the S3 culture medium again. […] (5) The cells were suspended in improved MEM (containing 10 μM Y-27632, 0.5×B-27 Supplement, and 100 U/ml penicillin/streptomycin), and were counted. […]

[2] = system: pancreatic endoderm cells after expansion culture; assay: Induction of differentiation into β-like cells after expansion culture; assay type: cell-based
Experimental: After the expansion culture, the differentiation into β-like cells was induced using the method by Kimura et al. (Non Patent Literature 1) with a portion thereof being modified. Briefly, pancreatic endoderm cells were detached from a 6-well plate using trypsin, and were then suspended in the S4 culture medium at 3×10^5 cells/ml. The cells were seeded on a V-bottomed 96-well plate at 3×10^4 cells/100 μl/well. […] The induction of differentiation of pancreatic endoderm cells that had been repeatedly passaged 5 times using the expansion culture method with “Y-27632+DMSO” or “Y-27632+ALK5i+RA” into β-like cells was promoted. Then, the efficiency of induction into β-like cells was compared with that of a cell cluster obtained by inducing pancreatic endoderm cells that had not been passaged into B-like cells.

[3] = system: NKX6.1-positive pancreatic endoderm cells derived from human iPS cells; assay: Screening of senescence-related reagents; assay type: cell-based
Experimental: FIG. 2-A A schematic diagram illustrating senescence-related reagent screening. […] After the elapse of one week, the cells were counted under a fluorescence microscope. Cells were differentiated to a pancreatic endoderm cell level using a stepwise differentiation-inducing method, and were then re-seeded on a 24-well plate at 2×10^5/well. The following culture media were added to these cultured cells, and the cells were cultured for 1 week. […] After fixed using 4% PFA, the cells were subjected to β-gal staining and NKX6.1 antibody immunostaining, and fluorescently stained images were acquired using BZ-800 (Keyence). The number of NKX6.1-positive cells, the NKX6.1-positive ratio, and the β-gal-positive ratio were calculated using the BZ-[…]/Macro Cell Count function of that microscope. FIGS. 2-A and 3-A show the outline of this procedure. A reagent enabling proliferation of pancreatic endoderm cells derived from human iPS cells was searched for in the senescence-related reagents. […] Then, (1) the number of NKX6.1-positive cells, or (2) the ratio of NKX6.1-positive cells and the ratio of β gal-positive cells were measured after the culture. FIGS. 2-B to 2-D show the results.

Compound: C[C@@H](N)[C@H]1CC[C@H](C(=O)Nc2ccncc2)CC1 [Y-27632]
- expansion culture of the pancreatic endoderm cells ([1]; FIG. 4-H): similarly possible
- cell (nuclear) shape ([1]; Y-27632 10 μM, passaged 5 times (5 weeks), FIGS. 5-B and 5-C): changed their shape (elongated elliptical shape)
- potential to differentiate into β-like cells ([2]; after 2 rounds of expansion culture with Y-27632 50 μM, FIG. 4-G): had a potential to differentiate
- efficiency of induction to β-like cells on repeated expansion culture ([2]; culture medium for expansion culture with Y-27632): tended to gradually decrease
- ratio of the pancreatic endoderm cells (NKX6.1-positive) ([3]; 50 μM, 1 week, FIG. 2-C): most effective
- ratio of β gal-positive cells (senescent cells) ([3]; 1 week, FIG. 2-D): exhibited an effect of reducing the ratio of β gal-positive cells
- concentration most suitable for the proliferation ([3]; FIG. 2-B): 50 µM
- number of NKX6.1-positive cells (pancreatic endoderm cells) ([3]; culture for 1 week, 24-well plate, FIG. 2-B): significantly increased
